Data set [1] is described as follows: Miniaturized non-sink dissolution in FaSSIF pH 6.5. In kind it is physicochemical. To be noted: for Dissolution levels in FaSSIF pH 6.5: 37° C.; for Dissolution level in FaSSIF: FaSSIF pH 6.5, 37° C. How it is done:
Approx. 10-20 mg of solid sample were weighed into glass vials. 7 ml of respective FaSSIF (pH 6.5) medium (prewarmed to 37° C.) were added and the suspension was shaken at 450 rpm at 37° C. After 5 min, 15 min, 60 min, and 120 min, 1 ml suspension was withdrawn and filtered through a 0.2 µm syringe filter. Clear filtrate was analysed by HPLC after suitable dilution to measure the amount of API dissolved. To get non-sink conditions 1 ml pre warmed FaSSiF solution was added after sample was withdrawn.
The clear solution was collected in HPLC vials, the filtrate further diluted if necessary and finally HPLC analysis was carried out.
HPLC method for ph-dependent solubility & miniaturised non-sink dissolution: • Column: Chromolith RP-18e 100 - 3 mm • Solvent A: water/formic acid (999:1; v/v) • Solvent B: acetonitrile/formic acid (999:1; v/v) • Injection volume: 5 µL • Column temperature: 37° C. • Wavelength detector: 218 nm

The nature of data set [2]: Water Vapour Sorption isotherm (DVS), hygroscopicity acc. to Ph. Eur. In kind it is physicochemical. As to conditions: for Hygroscopicity classification acc. to Ph. Eur. criteria (section 5.11.): based on water uptake difference 40-80% rh; for Water uptake level (Water Vapour Sorption): isotherm 25° C. Here is the method: As used herein, unless stated otherwise, Water Vapour Sorption isotherm measurements are carried out on a DVS-1 or a DVS-Intrinsic system from SMS.

[3] abbreviates: relative humidity range 40-80% rh.

SMILES strings stand for the structures. “Also recorded” adds a separate entry of the source.

Regarding `COc1ccc2nc3cc(Cl)ccc3c(Nc3cc(CN4CCCC4)c(O)c(CN4CCCC4)c3)c2n1` [Form I, 4-[(7-chloro-2-methoxybenzo[b][1,5]naphthyridin-10-yl)amino]-2,6-bis(pyrrolidin-1-ylmethyl)phenol], the “Dissolution levels in FaSSIF pH 6.5” value was determined as 547.9 µg/mL in data set [1] (5 min, listed as Tosylate salt Form I); 557.9 µg/mL in data set [1] (15 min, listed as Tosylate salt Form I); 552.8 µg/mL in data set [1] (60 min, listed as Tosylate salt Form I); 537.7 µg/mL in data set [1] (120 min, listed as Tosylate salt Form I). The “Dissolution level in FaSSIF” value in data set [1] (after 15 min) is recorded as “approx. 0.56 mg/mL”; in data set [1] (after 60 min) it was “approx. 0.55 mg/mL”; in data set [1] (after 120 min), “approx. 0.54 mg/mL”. Further, the “Hygroscopicity classification acc. to Ph. Eur. criteria (section 5.11.)” value in data set [2] is “hygroscopic”. For the same compound, in data set [2] (setting [3]), the “Water uptake level (Water Vapour Sorption)” value (“Water uptake level” for short) is 2.4 wt%.

Regarding `COc1ccc2nc3cc(Cl)ccc3c(Nc3cc(CN4CCCC4)c(O)c(CN4CCCC4)c3)c2n1` [Form II, 4-[(7-chloro-2-methoxybenzo[b][1,5]naphthyridin-10-yl)amino]-2,6-bis(pyrrolidin-1-ylmethyl)phenol], the “Dissolution levels in FaSSIF pH 6.5” value in data set [1] (5 min, listed as Besylate salt Form II) turned out to be 432.8 µg/mL; in data set [1] (15 min, listed as Besylate salt Form II), 447.0 µg/mL; in data set [1] (60 min, listed as Besylate salt Form II), 440.1 µg/mL; in data set [1] (120 min, listed as Besylate salt Form II), 444.5 µg/mL. Moreover, the “Dissolution level in FaSSIF” value in data set [1] (after 15 min) was “approx. 0.45 mg/mL”; in data set [1] (after 60 min) it was “approx. 0.44 mg/mL”; in data set [1] (after 120 min), “approx. 0.44 mg/mL”. Also, the “Hygroscopicity classification acc. to Ph. Eur. criteria (section 5.11.)” value in data set [2] is “slightly hygroscopic”. For the same compound, in data set [2] (relative humidity range 40-90% rh), the “Water uptake level” value is given as 1.4 wt%.

On to `COc1ccc2nc3cc(Cl)ccc3c(Nc3cc(CN4CCCC4)c(O)c(CN4CCCC4)c3)c2n1` [Form III, 4-[(7-chloro-2-methoxybenzo[b][1,5]naphthyridin-10-yl)amino]-2,6-bis(pyrrolidin-1-ylmethyl)phenol], for which the “Dissolution levels in FaSSIF pH 6.5” value was determined as 406.7 µg/mL in data set [1] (5 min, listed as Edisylate salt Form III); 462.7 µg/mL in data set [1] (15 min, listed as Edisylate salt Form III); 483.3 µg/mL in data set [1] (60 min, listed as Edisylate salt Form III); 469.7 µg/mL in data set [1] (120 min, listed as Edisylate salt Form III). Also, the entries for the “Dissolution level in FaSSIF” value in data set [1] (after 15 min), in data set [1] (after 60 min) and in data set [1] (after 120 min) were “approx. 0.46 mg/mL”, “approx. 0.48 mg/mL” and “approx. 0.47 mg/mL”, respectively. Also, the “Hygroscopicity classification acc. to Ph. Eur. criteria (section 5.11.)” value in data set [2] was “slightly hygroscopic”. In addition, the “Water uptake level” value in data set [2] (setting [3]) was 1.5 wt%. The “Tendency to undergo hydrate formation upon exposure to elevated RH levels” value (from here on “Tendency”) in data set [2] (up to 90% RH) is “no tendency to undergo hydrate formation”.

With `COc1ccc2nc3cc(Cl)ccc3c(Nc3cc(CN4CCCC4)c(O)c(CN4CCCC4)c3)c2n1` [Form IV, 4-[(7-chloro-2-methoxybenzo[b][1,5]naphthyridin-10-yl)amino]-2,6-bis(pyrrolidin-1-ylmethyl)phenol], the “Dissolution levels in FaSSIF pH 6.5” value is on record as 116.6 µg/mL in data set [1] (5 min, listed as Napsylate salt Form IV); 209.0 µg/mL in data set [1] (15 min, listed as Napsylate salt Form IV); 488.8 µg/mL in data set [1] (60 min, listed as Napsylate salt Form IV); 630.0 µg/mL in data set [1] (120 min, listed as Napsylate salt Form IV). In addition, the entries for the “Dissolution level in FaSSIF” value in data set [1] (after 15 min), in data set [1] (after 60 min) and in data set [1] (after 120 min) were “approx. 0.17 mg/mL”, “approx. 0.56 mg/mL” and “approx. 0.82 mg/mL”, respectively. Moreover, the “Hygroscopicity classification acc. to Ph. Eur. criteria (section 5.11.)” value in data set [2] is given as “slightly hygroscopic”. Also, in data set [2] (setting [3]), the “Water uptake level” value turned out to be 0.6 wt%. In data set [2] (up to 90% RH), the “Tendency” value is “no tendency to undergo hydrate formation”.

With `COc1ccc2nc3cc(Cl)ccc3c(Nc3cc(CN4CCCC4)c(O)c(CN4CCCC4)c3)c2n1` [Form V, 4-[(7-chloro-2-methoxybenzo[b][1,5]naphthyridin-10-yl)amino]-2,6-bis(pyrrolidin-1-ylmethyl)phenol], the “Dissolution levels in FaSSIF pH 6.5” value in data set [1] (5 min, listed as Napsylate salt Form V) was determined as 95.2 µg/mL; in data set [1] (15 min, listed as Napsylate salt Form V), 171.1 µg/mL; in data set [1] (60 min, listed as Napsylate salt Form V) it was 564.1 µg/mL; in data set [1] (120 min, listed as Napsylate salt Form V), 817.6 µg/mL. The “Dissolution level in FaSSIF” value in data set [1] (after 15 min) is “approx. 0.17 mg/mL”; in data set [1] (after 60 min), “approx. 0.56 mg/mL”; in data set [1] (after 120 min), “approx. 0.82 mg/mL”. Moreover, in data set [2], the “Hygroscopicity classification acc. to Ph. Eur. criteria (section 5.11.)” value is listed as “slightly hygroscopic; also recorded: non-hygroscopic”. The “Water uptake level” value in data set [2] (setting [3]) was determined as 0.6 wt%. The “Tendency” value in data set [2] (up to 90% RH) is listed as “no tendency to undergo hydrate formation”.

Regarding `COc1ccc2nc3cc(Cl)ccc3c(Nc3cc(CN4CCCC4)c(O)c(CN4CCCC4)c3)c2n1` [Form VI, 4-[(7-chloro-2-methoxybenzo[b][1,5]naphthyridin-10-yl)amino]-2,6-bis(pyrrolidin-1-ylmethyl)phenol], the “Hygroscopicity classification acc. to Ph. Eur. criteria (section 5.11.)” value in data set [2] was “non-hygroscopic”. The “Water uptake level” value in data set [2] (setting [3]) is reported as less than 0.1 wt%. The “Tendency” value in data set [2] (up to 98% RH) is recorded as “no tendency to undergo hydrate formation”.

`COc1ccc2nc3cc(Cl)ccc3c(Nc3cc(CN4CCCC4)c(O)c(CN4CCCC4)c3)c2n1` [Form VII, 4-[(7-chloro-2-methoxybenzo[b][1,5]naphthyridin-10-yl)amino]-2,6-bis(pyrrolidin-1-ylmethyl)phenol]: the “Hygroscopicity classification acc. to Ph. Eur. criteria (section 5.11.)” value in data set [2] was “non-hygroscopic; also recorded: slightly hygroscopic”. In addition, the “Water uptake level” value in data set [2] (setting [3]) is listed as less than 0.1 wt%. In data set [2] (up to 98% RH), the “Tendency” value is “no tendency to undergo hydrate formation”.

On to `COc1ccc2nc3cc(Cl)ccc3c(Nc3cc(CN4CCCC4)c(O)c(CN4CCCC4)c3)c2n1` [Tetraphosphate form, 4-[(7-chloro-2-methoxybenzo[b][1,5]naphthyridin-10-yl)amino]-2,6-bis(pyrrolidin-1-ylmethyl)phenol tetraphosphate, reference compound], for which the “Dissolution levels in FaSSIF pH 6.5” value in data set [1] (5 min, listed as Pyronaridine (tetraphosphate salt, prior art form)) was 501.4 µg/mL; in data set [1] (15 min, listed as Pyronaridine (tetraphosphate salt, prior art form)) it was 501.9 µg/mL; in data set [1] (60 min, listed as Pyronaridine (tetraphosphate salt, prior art form)) it was 501.3 µg/mL; in data set [1] (120 min, listed as Pyronaridine (tetraphosphate salt, prior art form)) it was 491.3 µg/mL. For the same compound, the “Dissolution level in FaSSIF” value in data set [1] (after 15 min) is recorded as “approx. 0.50 mg/mL”; in data set [1] (after 60 min), “approx. 0.50 mg/mL”; in data set [1] (after 120 min) it was “approx. 0.49 mg/mL”. The “Hygroscopicity classification acc. to Ph. Eur. criteria (section 5.11.)” value in data set [2] and in data set [2] (listed as pyronaridine) was “hygroscopic” throughout. Further, the “Water uptake level” value in data set [2] (setting [3]) was greater than 4.9 wt%.
